For the test, the system named is anesthetized dog. Kind of test: Effect on the increase in intravesical pressure induced by carbachol in anesthetized dog. The format is in vivo. The settings on record: 0.32 mg/kg intra-duodenal, 30 minutes before carbachol (1.8 μg/kg); female Beagle dogs under halothane anesthesia; N = 2; Control 9.3. The protocol: Effect on the increase in intravesical pressure induced by carbachol in anesthetized dog
Female Beagle dogs weighing 8.0-15.0 kg were fasted for 24 hours and maintained under halothane anesthesia. A 12F Foley catheter was lubricated with water soluble jelly, inserted into the urethral orifice and advanced approximately 10 cm until the balloon tip was placed well inside the bladder. The balloon was then inflated with 5 ml of room air and catheter slowly withdrawn just part the first resistance that is felt at the bladder neck. Urine was completely drained out thought the catheter, and 30 ml of biological saline was infused. The catheter was connected to pressure transducer, and intravesical pressure was continuously recorded. The test compound was injected by intra-duodenal route at 30 minutes before the administration of carbachol (1.8 μg/kg).

The record followed here is patent US20020143034A1, “Aminoalcohol derivatives and their use as beta 3 adrenergic agonists” (Fujisawa Pharmaceutical Co. Ltd., priority 1998, published 2002).

The structures appear in SMILES notation.

As to `COc1ccc2c(Oc3ccc(C[C@@H](CO)NC[C@H](O)COc4ccccc4)cc3)ccnc2c1` [Example 78, 2(S)-2-[(2S)-2-hydroxy-3-(phenoxy)propylamino]-3-[4-(7-methoxyquinolin-4-yloxy)phenyl]propan-1-ol], the “Increase in intravesical pressure” value was found to be 5.5 mmHg.
